In experiment [1] the target is T1, human JAK1 (a.a. 837-1142) (Homo sapiens, UniProt P23458).
T1 construct: human JAK1 (a.a. 837-1142); His tag (N); made in house; host or cells: insect cells (baculovirus)
As to the kind of experiment: In vitro JAK kinase assay (HTRF), JAK1. The class given is biochemical. The note with it: JAK1, 90 μM ATP; read-out: EXAMPLE A JAK2-JAK1 HTRF-2 IC50. Put shortly: (§1)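 His-tagged catalytic domains from baculovirus-infected insect cells phosphorylated 500 nM biotinylated peptide in 50 mM Tris pH 7.8, 100 mM NaCl, 5 mM DTT, 0.01% BSA for 1 h at room temperature. ATP was 90 μM (JAK1), 30 μM (JAK2), 3 μM (JAK3). Detection used Eu-Py20/SA-APC; IC50s were derived.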
For orientation: In TR-FRET formats the signal depends on donor and acceptor labels being close together.

Experiment [2] has as its target T2, human JAK2 (a.a. 828-1132) (Homo sapiens, UniProt O60674).
T2 construct: JAK2 (a.a. 828-1132); His tag (N); made in house; host or cells: insect cells (baculovirus)
As to the kind of experiment: In vitro JAK kinase assay (HTRF), JAK2. Format: biochemical. As to conditions: JAK2, 30 μM ATP; read-out: EXAMPLE A HTS-JAK2 HTRF-2 IC50. Put shortly:
as §1

The target of another experiment is TF1-BCRABL1 cells (Homo sapiens, UniProt P00519). Put plainly: ABL1 cell based assay: viability of ABL1-dependent cell line (CellTiter-Glo). The note with it: 72 hours, cell viability; read-out: EXAMPLE F JAK2-TF1-BCRABL1 IC50. The essentials: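 ABL1-dependent cells plated at 3000 per well in RPMI 1640 with 10% FBS and exposed to compounds for 72 h at 37° C, 5% CO2, 0.2% DMSO final. Viability read by CellTiter-Glo luminescence; duplicate or more.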
TF1-BCRABL1 cells, sequence (P00519 whole entry, change not shown): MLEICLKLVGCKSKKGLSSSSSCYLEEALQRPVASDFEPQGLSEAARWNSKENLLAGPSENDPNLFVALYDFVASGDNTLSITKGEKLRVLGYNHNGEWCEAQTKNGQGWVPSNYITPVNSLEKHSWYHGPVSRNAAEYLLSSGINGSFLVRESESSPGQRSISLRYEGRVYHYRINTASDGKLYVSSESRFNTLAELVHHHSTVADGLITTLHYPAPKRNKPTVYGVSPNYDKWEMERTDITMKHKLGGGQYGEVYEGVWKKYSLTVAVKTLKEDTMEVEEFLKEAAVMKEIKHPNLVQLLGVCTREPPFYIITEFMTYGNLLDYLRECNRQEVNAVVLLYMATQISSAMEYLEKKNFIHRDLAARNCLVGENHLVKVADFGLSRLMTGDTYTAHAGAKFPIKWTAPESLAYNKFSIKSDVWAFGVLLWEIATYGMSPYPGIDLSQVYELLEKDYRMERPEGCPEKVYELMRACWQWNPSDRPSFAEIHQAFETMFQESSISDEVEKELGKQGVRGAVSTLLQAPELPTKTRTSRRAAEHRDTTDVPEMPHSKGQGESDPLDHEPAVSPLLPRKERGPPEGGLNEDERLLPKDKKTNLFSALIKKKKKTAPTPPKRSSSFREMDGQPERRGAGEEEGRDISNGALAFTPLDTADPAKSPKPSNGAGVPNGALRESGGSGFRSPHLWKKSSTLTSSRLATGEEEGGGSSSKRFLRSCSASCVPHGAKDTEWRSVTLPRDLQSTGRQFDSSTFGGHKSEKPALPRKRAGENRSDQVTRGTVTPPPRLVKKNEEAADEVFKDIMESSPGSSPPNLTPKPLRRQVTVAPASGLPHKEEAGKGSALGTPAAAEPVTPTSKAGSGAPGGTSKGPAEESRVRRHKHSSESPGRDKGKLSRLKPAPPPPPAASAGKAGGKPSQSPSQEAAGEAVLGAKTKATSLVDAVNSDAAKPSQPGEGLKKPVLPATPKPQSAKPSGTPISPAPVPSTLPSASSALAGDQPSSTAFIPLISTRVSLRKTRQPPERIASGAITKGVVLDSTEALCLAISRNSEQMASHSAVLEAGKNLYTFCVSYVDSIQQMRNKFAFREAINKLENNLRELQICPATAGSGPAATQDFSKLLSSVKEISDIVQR
A general note: Cellular ATP, detected with luciferase, serves as a proxy for viable cell number.

The test system of experiment [3] is JAK2_INA61 (cancer cell line dependent on cytokines and JAK/STAT signal transduction). As to the kind of experiment: Cellular assay: viability of cytokine-dependent cancer cell line (CellTiter-Glo). Format: cell-based. The note with it: 72 hours, read-out: EXAMPLE B JAK2_INA61 IC50. How it is done:
One or more compounds herein were tested for inhibitory activity of JAK targets according to at least one of the following cellular assays.
Compounds were added to the cells in DMSO/media (final concentration 0.2% DMSO) and incubated for 72 hours at 37° C., 5% CO2. The effect of compound on cell viability was assessed using the CellTiter-Glo Luminescent Cell Viability Assay (Promega) followed by TopCount (Perkin Elmer, Boston, Mass.) quantitation. Potential off-target effects of compounds were measured in parallel using a non-JAK driven cell line with the same assay readout. […] All experiments were performed in duplicate.

In experiment [4] the target is T3, human JAK3 (a.a. 781-1124) (Homo sapiens, UniProt P52333).
T3 construct: JAK3 (a.a. 781-1124); His tag (N); made in house; host or cells: insect cells (baculovirus)
T3 sequence (P52333 781-1124): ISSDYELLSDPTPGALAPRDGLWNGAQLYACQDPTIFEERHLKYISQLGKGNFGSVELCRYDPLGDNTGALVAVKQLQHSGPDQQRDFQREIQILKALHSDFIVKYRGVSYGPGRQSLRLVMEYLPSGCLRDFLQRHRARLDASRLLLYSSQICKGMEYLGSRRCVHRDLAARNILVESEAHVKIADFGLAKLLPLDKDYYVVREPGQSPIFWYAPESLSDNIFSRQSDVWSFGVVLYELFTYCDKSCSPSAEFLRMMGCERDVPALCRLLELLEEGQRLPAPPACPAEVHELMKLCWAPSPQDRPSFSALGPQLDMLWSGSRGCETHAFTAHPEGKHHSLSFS
Put plainly: In vitro JAK kinase assay (HTRF), JAK3. Format: biochemical. As to conditions: JAK3, 3 μM ATP; read-out: EXAMPLE A JAK2-JAK3 HTRF-2 IC50. The essentials: as §1

What is called IC50 is the concentration at which inhibition is half-maximal.

The structures appear in SMILES notation. Counter-ions that a name gives are not always drawn.

T1 sequence (P23458 849-1154): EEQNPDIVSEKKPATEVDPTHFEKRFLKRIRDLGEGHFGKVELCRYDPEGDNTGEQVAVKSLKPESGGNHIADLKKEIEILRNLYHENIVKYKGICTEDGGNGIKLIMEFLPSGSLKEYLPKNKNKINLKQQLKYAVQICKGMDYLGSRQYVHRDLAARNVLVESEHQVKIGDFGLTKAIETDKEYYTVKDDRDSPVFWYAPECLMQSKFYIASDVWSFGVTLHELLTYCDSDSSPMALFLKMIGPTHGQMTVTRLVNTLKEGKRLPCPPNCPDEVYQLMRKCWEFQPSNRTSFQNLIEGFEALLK
T2 sequence (O60674 828-1132): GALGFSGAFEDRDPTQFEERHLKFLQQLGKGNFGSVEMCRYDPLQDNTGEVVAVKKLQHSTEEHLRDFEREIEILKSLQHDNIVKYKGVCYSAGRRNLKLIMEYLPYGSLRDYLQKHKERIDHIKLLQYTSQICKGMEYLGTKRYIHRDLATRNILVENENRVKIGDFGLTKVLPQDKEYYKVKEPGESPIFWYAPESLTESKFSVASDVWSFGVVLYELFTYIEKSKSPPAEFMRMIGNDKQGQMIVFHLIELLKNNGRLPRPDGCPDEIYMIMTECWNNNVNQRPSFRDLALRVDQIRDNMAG

With `O=C(Nc1ccc(F)c(-c2ccc3c(c2)[nH]c2ncncc23)c1)c1cccc(C(F)(F)F)c1` [Example 13, N-[4-fluoro-3-(9H-pyrimido-[4,5-b]indol-7-yl)phenyl]-3-(trifluoromethyl)benzamide], the half-maximal inhibitory concentration (IC50) in experiment [1], in experiment [2], in experiment [3] and in experiment [4] was at most 500 nM throughout. Moreover, the GI50 at TF1-BCRABL1 cells is at most 500 nM.

Consider `Cc1ccc(NC(=O)c2cc(NCCN(C)C)cc(C(F)(F)F)c2)cc1-c1ccc2c(c1)[nH]c1ncncc12` [Example 38, 3-{[2-(dimethylamino)ethyl]-amino}-N-[4-methyl-3-(9H-pyrimido [4,5-b]indol-7-yl)-phenyl]-5-(trifluoromethyl) benzamide], for which the half-maximal inhibitory concentration (IC50) in experiment [1] is at most 500 nM; in experiment [2], at most 500 nM; in experiment [3], 500 to 1000 nM; in experiment [4], at most 500 nM. Besides, the GI50 on TF1-BCRABL1 cells is at most 500 nM.

Take `Cc1ccc(NC(=O)Nc2cccc(C(F)(F)F)c2)cc1-c1ccc2[nH]c3ncncc3c2c1` [Example 48, N-[4-Methyl-3-(9H-pyrimido[4,5-b]indol-6-yl)phenyl]-N′-[3-(trifluoromethyl)-phenyl]urea]: the IC50 in experiment [1] is at most 500 nM; in experiment [2], over 1000 nM; in experiment [3] it was 500 to 1000 nM; in experiment [4] it was 500 to 1000 nM. For the same compound, the GI50 on TF1-BCRABL1 cells is at most 500 nM.

In the case of `Cc1ccc(NC(=O)c2cccc(C(F)(F)F)c2)cc1-c1ccc2c(c1)[nH]c1ncncc12` [Example 1, N-[4-Methyl-3-(9H-pyrimido[4,5-b]indol-7-yl)phenyl]-3-(trifluoromethyl)benzamide trifluoroacetate], the IC50 in experiment [1], in experiment [2], in experiment [3] and in experiment [4] was at most 500 nM in each case. Further, the GI50 at TF1-BCRABL1 cells was at most 500 nM.

Regarding `Cc1ccc(NC(=O)Nc2cccc(C(F)(F)F)c2)cc1-c1ccc2c(c1)[nH]c1ncncc12` [Example 47, N-[4-Methyl-3-(9H-pyrimido[4,5-b]indol-7-yl)phenyl]-N′-[3-(trifluoromethyl)-phenyl]urea], the half-maximal inhibitory concentration (IC50) in experiment [1] is at most 500 nM; in experiment [2], 500 to 1000 nM; in experiment [3] it was over 1000 nM; in experiment [4], at most 500 nM. The GI50 at TF1-BCRABL1 cells is at most 500 nM.

`N#Cc1ccc(C(=O)Nc2cccc(C(F)(F)F)c2)cc1-c1ccc2c(c1)[nH]c1ncncc12` [Example 51, 4-Cyano-3-(9H-pyrimido[4,5-b]indol-7-yl)-N-[3-(trifluoromethyl)phenyl]-benzamide]: the IC50 in experiment [1] was at most 500 nM; in experiment [2] it was at most 500 nM; in experiment [3] it was over 1000 nM; in experiment [4], over 1000 nM. The GI50 on TF1-BCRABL1 cells is at most 500 nM.

`Cc1ccc(NC(=O)c2ccc(F)c(C(F)(F)F)c2)cc1-c1ccc2[nH]c3ncncc3c2c1` [Example 42, 4-fluoro-N-[4-methyl-3-(9H-pyrimido[4,5-b]indol-6-yl)-phenyl]-3-(trifluoromethyl)-benzamide]: the IC50 in experiment [1] is at most 500 nM; in experiment [2], at most 500 nM; in experiment [3], over 1000 nM; in experiment [4], 500 to 1000 nM. Further, the GI50 on TF1-BCRABL1 cells was at most 500 nM.

For the compound `Cc1ccc(NC(=O)c2cccc(F)c2)cc1-c1ccc2c(c1)[nH]c1ncncc12` [Example 6, 3-fluoro-N-[4-methyl-3-(9H-pyrimido[4,5-b]indol-7-yl)-phenyl]benzamide], the half-maximal inhibitory concentration (IC50) in experiment [1] was at most 500 nM; in experiment [2], at most 500 nM; in experiment [3] it was 500 to 1000 nM; in experiment [4], at most 500 nM. Further, the GI50 on TF1-BCRABL1 cells is at most 500 nM.

Consider `Cc1ccc(NC(=O)c2cc(C(F)(F)F)ccc2C(F)(F)F)cc1-c1ccc2c(c1)[nH]c1ncncc12` [Example 7, N-[4-methyl-3-(9H-pyrimido[4,5-b]indol-7-yl)phenyl]-2,5-bis(trifluoromethyl)benzamide], for which the IC50 in experiment [1] was at most 500 nM; in experiment [2], over 1000 nM; in experiment [3], over 1000 nM; in experiment [4] it was at most 500 nM. Besides, at TF1-BCRABL1 cells, the GI50 was in the range of 500 to 1000 nM.

For the compound `Cc1cnc(NC(=O)c2ccc(C)c(-c3ccc4c(c3)[nH]c3ncncc34)c2)s1` [Example 57, 4-methyl-N-(5-methyl-1,3-thiazol-2-yl)-3-(9H-pyrimido-[4,5-b]indol-7-yl)benzamide], the half-maximal inhibitory concentration (IC50) is at most 500 nM in experiment [1], over 1000 nM in experiment [2], over 1000 nM in experiment [3] and over 1000 nM in experiment [4]. Moreover, the GI50 at TF1-BCRABL1 cells is at most 500 nM.

As for `Cc1ccc(NC(=O)c2cc(N3CCNCC3)cc(C(F)(F)F)c2)cc1-c1ccc2c(c1)[nH]c1ncncc12` [Example 28, N-[4-methyl-3-(9H-pyrimido-[4,5-b]indol-7-yl)phenyl]-3-piperazin-1-yl-5-(trifluoro-methyl)benzamide], the IC50 in experiment [1] was at most 500 nM; in experiment [2] it was at most 500 nM; in experiment [3], 500 to 1000 nM; in experiment [4], at most 500 nM. Besides, on TF1-BCRABL1 cells, the GI50 is at most 500 nM.

As for `Cc1ccc(NC(=O)c2cccc(F)c2)cc1-c1ccc2[nH]c3ncncc3c2c1` [Example 44, 3-fluoro-N-[4-methyl-3-(9H-pyrimido[4,5-b]indol-6-yl)-phenyl]benzamide], the concentration for half-maximal inhibition (IC50) was at most 500 nM in experiment [1], over 1000 nM in experiment [2], over 1000 nM in experiment [3] and at most 500 nM in experiment [4]. Further, the GI50 at TF1-BCRABL1 cells lay within 500 to 1000 nM.

For `Cc1cn(-c2cc(NC(=O)c3ccc(C)c(-c4ccc5c(c4)[nH]c4ncncc45)c3)cc(C(F)(F)F)c2)cn1` [Example 62, 4-methyl-N-[3-(4-methyl-1H-imidazol-1-yl)-5-(trifluoro-methyl)phenyl]-3-(9H-pyrimido[4,5-b]indol-7-yl)-benzamide], the concentration for half-maximal inhibition (IC50) in experiment [1] is at most 500 nM; in experiment [2] it was at most 500 nM; in experiment [3], 500 to 1000 nM; in experiment [4], at most 500 nM. The GI50 at TF1-BCRABL1 cells is at most 500 nM.

Take `Cc1ccc(C(=O)Nc2cccc(C(F)(F)F)c2)cc1-c1ccc2c(c1)[nH]c1ncccc12` [Example 68, 4-Methyl-3-(9H-pyrido[2,3-b]indol-7-yl)-N-[3-(trifluoromethyl)phenyl]benzamide, trifluoroacetate salt]: the IC50 was at most 500 nM in experiment [1], at most 500 nM in experiment [2], over 1000 nM in experiment [3] and at most 500 nM in experiment [4]. Moreover, the GI50 at TF1-BCRABL1 cells is at most 500 nM.

For `Cc1ccc(NC(=O)c2cccc(S(F)(F)(F)(F)F)c2)cc1-c1ccc2c(c1)[nH]c1ncncc12` [Example 16, N-[4-methyl-3-(9H-pyrimido-[4,5-b]indol-7-yl)phenyl]-3-(pentafluoro-λ(6)-sulfanyl)-benzamide], the IC50 is at most 500 nM in experiment [1], at most 500 nM in experiment [2], 500 to 1000 nM in experiment [3] and at most 500 nM in experiment [4]. Also, the GI50 on TF1-BCRABL1 cells is at most 500 nM.

Regarding `COc1cccc(C(=O)Nc2ccc(C)c(-c3ccc4c(c3)[nH]c3ncncc34)c2)c1` [Example 11, 3-methoxy-N-[4-methyl-3-(9H-pyrimido[4,5-b]indol-7-yl)-phenyl]benzamide], the IC50 is at most 500 nM in experiment [1], 500 to 1000 nM in experiment [2], over 1000 nM in experiment [3] and at most 500 nM in experiment [4]. For the same compound, on TF1-BCRABL1 cells, the GI50 was at most 500 nM.

With `O=C(Nc1cccc(C(F)(F)F)c1)c1cccc(-c2ccc3c(c2)[nH]c2ncncc23)c1` [Example 59, 3-(9H-pyrimido[4,5-b]indol-7-yl)-N-[3-(trifluoromethyl)-phenyl]benzamide], the IC50 in experiment [1] is at most 500 nM; in experiment [2], at most 500 nM; in experiment [3], over 1000 nM; in experiment [4] it was over 1000 nM. Further, the GI50 on TF1-BCRABL1 cells is 500 to 1000 nM.

As to `Cc1ccc(C(=O)N[C@@H](C)c2ccccc2)cc1-c1ccc2c(c1)[nH]c1ncncc12` [Example 64, 4-methyl-N-[(1S)-1-phenylethyl]-3-(9H-pyrimido[4,5-b]indol-7-yl)benzamide], the half-inhibitory concentration (IC50) is over 1000 nM in experiment [1], over 1000 nM in experiment [2], over 1000 nM in experiment [3] and at most 500 nM in experiment [4]. Also, on TF1-BCRABL1 cells, the GI50 was in the range of 500 to 1000 nM.

The record behind these values is patent US8513270B2, “Substituted heterocycles as Janus kinase inhibitors” (Incyte Corporation, priority 2006, dated 2013).
